Results taken from paper PMC5059851, “Inhibition of Hedgehog-dependent tumors and cancer stem cells by a newly identified naturally occurring chemotype” (Cell Death & Disease, 2016).

The molecules below were run on Hh pathway (Gli-responsive firefly luciferase reporter) (assay: Hh-dependent Gli-luciferase reporter assay in SAG-treated NIH3T3 Shh-Light II cells). Details: SAG (200 nM)-treated NIH3T3 Shh-Light II cells, 48 h, normalized to Renilla; N.A. = Not Active.
Assay type: cell-based
Experimental: The inhibitory properties of the potential Smo antagonists 1–17 were investigated in a luciferase reporter assay that is widely used for characterizing Hh inhibitors. NIH3T3 Shh-Light II cells, stably incorporating a Gli-responsive firefly luciferase reporter (Gli-RE),[25] were treated with the synthetic Smo agonist SAG[24] alone or in combination with the selected small molecules to evaluate their dose–response ability to suppress Hh pathway. […] We excluded the possibility that inhibition activity in this assay was mediated by cytotoxicity because no decrease was shown in the luciferase assay control Renilla as observed instead for 13–17.
The luciferase assay was performed in Shh-Light II cells, stably incorporating a Gli-responsive luciferase reporter and the pRL-TK Renilla (normalization control), treated for 48 h with SAG (200 nM) and the studied compounds. Luciferase and Renilla activity were assayed with a dual-luciferase assay system according to the manufacturer's instruction (Biotium Inc., Hayward, CA, USA). Results are expressed as luciferase/Renilla ratios and represent the mean±S.D. of three experiments, each performed in triplicate.
“3-benzo[1,3]dioxol-5-yl-1-(2,4,5-trimethoxy-phenyl)-propan-1-one [Compound 7]” was tested, and the IC50 was 38.5 ± 3.57 µM.
Work on `CC(C)=CCc1c(O)ccc(C(=O)[C@H]2[C@@H](c3c(O)cc(/C=C/c4ccc(O)cc4O)cc3O)C=C(C)C[C@@H]2c2ccc(O)cc2O)c1O` [Compound 8, [2,4-dihydroxy-3-(3-methyl-2-buten-1-yl)phenyl][(1R,2S,6S)-6-(2,4-dihydroxyphenyl)-2-{4-[(E)-2-(2,4-dihydroxyphenyl)vinyl]-2,6-dihydroxyphenyl}-4-methyl-3-cyclohexen-1-yl]methanone] yielded an IC50 of 27.5 ± 2.67 µM.
In the case of `COc1c(C2COc3cc(O)c(CC=C(C)C)c(O)c3C2=O)ccc(O)c1CC=C(C)C` (stereo not shown) [Compound 11, 5,7-dihydroxy-3-[4-hydroxy-2-methoxy-3-(3-methyl-2-buten-1-yl)phenyl]-6-(3-methyl-2-buten-1-yl)-2,3-dihydro-4H-chromen-4-one], the IC50 is reported as 22.6 µM.
Molecule `COc1cc(OC)c2c(=O)c(-c3ccc4c(c3)OCO4)coc2c1` [Compound 9, 3-(1,3-benzodioxol-5-yl)-5,7-dimethoxy-4H-chromen-4-one] has an IC50 of 24.1 ± 1.6 µM.
With `COc1ccc(C=CC(=O)c2c(OC)cc(OC)c(OC)c2OC)cc1OC` [Compound 10, 3-(3,4-dimethoxy-phenyl)-1-(2,3,4,6-tetramethoxy-phenyl)-2-propen-1-one] the IC50 was 31.3 ± 2.29 µM.
`CC1=C[C@@H]2c3c(O)cc(/C=C/c4ccc(O)cc4O)cc3OC3(c4ccc(O)c5c4OC(C)(C)C=C5)Oc4cc(O)ccc4[C@@H](C1)[C@H]23` (stereo partly drawn) [Compound 6, (3aS,13bS,13cR)-6-[(E)-2-(2,4-dihydroxyphenyl)vinyl]-8a-(5-hydroxy-2,2-dimethyl-2H-chromen-8-yl)-2-methyl-1,8a,13b,13c-tetrahydro-3aH-benzo[3,4]isochromeno[1,8-bc]chromene-4,11-diol] showed an IC50 of 30 ± 1.93 µM.

The molecules below were run against T1, human Smo D473H (Homo sapiens, UniProt Q99835, D473H) (assay: Bodipy-Cyclopamine (BC) binding assay, HEK293T cells transfected with human Smo D473H). Details: resistant Smo mutants versus WT.
T1 construct: Myc-DDK; expressed in transfected cells; host or cells: HEK293T
T1 sequence (Q99835 28-787 D473H): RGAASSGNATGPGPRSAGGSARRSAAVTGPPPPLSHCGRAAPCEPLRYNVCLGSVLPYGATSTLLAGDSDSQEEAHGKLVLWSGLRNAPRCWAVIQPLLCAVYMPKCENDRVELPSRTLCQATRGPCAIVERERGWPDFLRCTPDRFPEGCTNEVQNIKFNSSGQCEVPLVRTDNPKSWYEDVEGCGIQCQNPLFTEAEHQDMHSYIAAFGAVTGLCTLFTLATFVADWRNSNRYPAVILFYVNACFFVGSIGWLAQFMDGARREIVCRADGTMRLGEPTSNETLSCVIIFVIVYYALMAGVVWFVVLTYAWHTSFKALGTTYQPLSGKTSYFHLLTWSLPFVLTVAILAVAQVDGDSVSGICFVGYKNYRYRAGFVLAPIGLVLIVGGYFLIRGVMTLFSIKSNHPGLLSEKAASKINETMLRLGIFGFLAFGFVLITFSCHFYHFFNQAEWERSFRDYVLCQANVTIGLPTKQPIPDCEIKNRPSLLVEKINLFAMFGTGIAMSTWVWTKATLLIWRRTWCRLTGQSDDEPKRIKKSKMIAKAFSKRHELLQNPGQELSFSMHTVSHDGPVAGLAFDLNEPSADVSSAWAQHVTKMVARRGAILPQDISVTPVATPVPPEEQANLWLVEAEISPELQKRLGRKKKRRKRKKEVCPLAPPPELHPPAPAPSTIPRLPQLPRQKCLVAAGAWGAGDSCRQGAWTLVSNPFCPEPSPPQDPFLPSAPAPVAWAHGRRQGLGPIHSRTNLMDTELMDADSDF
Experimental: Cells were washed in PBS supplemented with 0.5% fetal bovine serum, fixed in 4% paraformaldehyde in phosphate-buffered saline (PBS) for 10 min, and incubated for 2 h at 37 °C both in the same medium supplemented with Bodipy-Cyclopamine (5 nM) and the studied compounds. The cells were permeabilized with Triton X100 (Sigma) 0.2%. Dako Fluorescent mounting (Dako, Carpinteria, CA, USA) was used as mounting medium and Hoechst reagent for staining of the cell nuclei. Bodipy (green) and Hoechst (blue) signals were analyzed in three to four representative fields per coverslip (× 20 magnification, 1000 cells/field). Data were expressed as percentage of BC incorporation observed with BC alone.[95]
For `CS(=O)(=O)c1ccc(C(=O)Nc2ccc(Cl)c(-c3ccccn3)c2)c(Cl)c1` [Vismodegib, reference compound], the “loss of affinity for the resistant Smo mutants in binding assay” value was “about 1000 fold”.
